According to patent publication US8481525B2, “Kinase inhibitors and method of treating cancer with same” (University of Health Network, priority 2009, dated 2013):
Read-outs that look alike come from different tables or passages of the source.

What was measured:
[1] = biological target: T1, Aurora A (Homo sapiens, UniProt O14965); assay: Aurora A Inhibition Assay (Z-Lyte); format: biochemical; details: read-out: Aurora A relative inhibition percentage at a dose of 1 μM
T1 construct: purchased Invitrogen PV3612
T1 sequence (O14965 1-403): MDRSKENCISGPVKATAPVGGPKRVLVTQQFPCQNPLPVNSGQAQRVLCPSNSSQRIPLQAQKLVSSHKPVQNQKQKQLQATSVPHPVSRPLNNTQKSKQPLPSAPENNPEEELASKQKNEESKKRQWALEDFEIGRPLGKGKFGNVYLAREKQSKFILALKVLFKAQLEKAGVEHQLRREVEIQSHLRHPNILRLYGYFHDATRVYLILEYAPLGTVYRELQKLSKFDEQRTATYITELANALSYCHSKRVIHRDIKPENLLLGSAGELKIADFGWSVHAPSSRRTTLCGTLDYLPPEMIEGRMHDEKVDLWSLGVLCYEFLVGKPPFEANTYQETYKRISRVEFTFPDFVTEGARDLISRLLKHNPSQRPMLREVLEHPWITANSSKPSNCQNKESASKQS
Method: Aurora A inhibition was determined using the Z-Lyte assay kit from Invitrogen. The assay was performed using the recommended manufacturer's instructions with 20 μM ATP and 12 nM Aurora A (Invitrogen cat # PV3612). The % inhibition values were determined according to the manufacturer's directions and IC50 values were obtained using a non-linear 4 point logistic curve fit (XLfit4, IDBS)

[2] = test system: SW620 colon cancer cell line; assay: Cell growth inhibition, Sulforhodamine B assay (SRB); format: cell-based; details: Homo sapiens, SW-620, 120 h, 5 days culture, SRB
Method: (§1) The cells were cultured for 5 days before the Sulforhodamine B assay (SRB) was performed to determine the compound's cell growth inhibition activity.
(§2) Sulforhodamine B (purchased from Sigma, Oakville, ON, Canada) is a water-soluble dye that binds to the basic amino acids of the cellular proteins. Thus, colorimetric measurement of the bound dye provides an estimate of the total protein mass that is related to the cell number. the cells are fixed in situ by gently aspirating off the culture media and adding 50 μl ice cold 10% Trichloroacetic Acid (TCA) per well and incubate at 4° C. for 30-60 min, The plates are washed with water five times and allowed to air dry for 5 min. […] Following staining, plates are washed four times with 1% acetic acid to remove unbound dye and then allowed to air dry for 5 min. […] Absorbance is read at 570 nm.
(§3) The percentage (%) of relative growth inhibition was calculated by comparing to DMSO treated only cells (100%). GI50's were determined for compounds with cytotoxic activity. The GI50 was calculated using GraphPad PRISM software (GraphPad Software, Inc., San Diego, Calif., USA).

[3] = test system: HCC1954 basal breast cancer cell line; assay: as above; format: cell-based; details: Homo sapiens, read-out: Cell Line GI50 Range HCC-1954
Method: as §1, §2, §3

[4] = test system: A549 lung cancer cell line; assay: as above; format: cell-based; details: Homo sapiens, read-out: Cell Line GI50 Range A-549
Method: as §1, §2, §3

[5] = test system: MCF-7 luminal breast cancer cell line; assay: as above; format: cell-based; details: Homo sapiens, MCF7, 120 h, 5 days culture, SRB
Method: as §1, §2, §3

[6] = test system: MDA-MB-468 basal breast cancer cell line; assay: as above; format: cell-based; details: Homo sapiens, read-out: Cell Line GI50 Range MDA-MB-468
Method: as §1, §2, §3

[7] = biological target: T2, human PLK4 (Homo sapiens, UniProt O00444); assay: PLK4 Inhibition Assay (indirect ELISA); format: biochemical; details: 15 μM ATP; read-out: PLK4 IC50 Ranges
T2 construct: amino terminal GST fusion of residues 1-391 of human PLK4; made in house; host or cells: E. coli
T2 sequence (O00444 1-391): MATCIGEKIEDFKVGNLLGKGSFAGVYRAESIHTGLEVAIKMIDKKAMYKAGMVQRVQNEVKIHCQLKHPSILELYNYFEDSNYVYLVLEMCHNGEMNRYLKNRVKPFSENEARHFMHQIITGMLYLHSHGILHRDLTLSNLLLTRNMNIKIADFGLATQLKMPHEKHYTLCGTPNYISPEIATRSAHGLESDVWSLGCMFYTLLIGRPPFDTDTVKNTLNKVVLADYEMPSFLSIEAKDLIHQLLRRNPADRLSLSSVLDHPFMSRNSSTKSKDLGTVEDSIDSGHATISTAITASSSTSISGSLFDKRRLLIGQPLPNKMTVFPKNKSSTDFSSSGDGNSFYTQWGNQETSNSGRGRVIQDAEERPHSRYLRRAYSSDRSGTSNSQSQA
Method: The protein was purified from clarified cell extracts after induction at 15° C. overnight using glutathione sepharose, gel permeation chromatography, and ion exchange (Resource Q). The resulting protein was dephosphorylated with lambda phosphatase (NEB cat# P0753), and resolved from the phosphatase using gluthione sepharose. The dephosphorylated GST-PLK4 was stored in aliquots at −80° C. until use.
PLK4 activity was measured using an indirect ELISA detection system. […] The colourimetric reaction was allowed to continue for 5 minutes, followed by addition of stop solution (0.5 N sulphuric acid), and quantified by detection at 450 nm with either a monochromatic or filter based plate reader (Molecular Devices M5 or Beckman DTX880, respectively).
Compounds were pre-incubated in the presence of enzyme for 15 minutes prior to addition of ATP and the activity remaining quantified using the above described activity assay. […] The IC50 value was determined using a non-linear 4 point logistic curve fit (XLfit4, IDBS) with the formula; (A+(B/(1+((x/C){grave over ( )}D)))), where A=background value, B=range, C=inflection point, D=curve fit parameter.

[8] = SW620 colon cancer cell line, read-out: Cell Line GI50 Range SW-620
[9] = HCC1954, 120 h, HCC1954 basal breast cancer cell line, 5 days culture, SRB
[10] = 120 h, A549 lung cancer cell line, 5 days culture, SRB
[11] = MCF-7 luminal breast cancer cell line, read-out: Cell Line GI50 Range MCF-7
[12] = 120 h, MDA-MB-468 basal breast cancer cell line, 5 days culture, SRB
[13] = 120 h, HCC1954 basal breast cancer cell line, 5 days culture, SRB

Row | SMILES | GI50 [2, 8] | GI50 [4, 10] | GI50 [5, 11] | GI50 [6, 12] | inhibition at 1 µM ([1]; 1 μM compound, 20 μM ATP) | other results
1 | COc1ccc2c(c1)[C@@]1(C[C@@H]1c1ccc3c(/C=C/c4ccc(CN5CCOCC5)cc4)n[nH]c3c1)C(=O)N2 (racemic) [Example A41, (1R*,2S*)-(E)-5′-methoxy-2-(3-(4-(morpholinomethyl)styryl)-1H-indazol-6-yl)spiro[cyclopropane-1,3′-indolin]-2′-one 2,2,2-trifluoroacetate] | – | – | – | – | > 50% | –
2 | O=C1Nc2ccccc2[C@@]12C[C@@H]2c1ccc2c(/C=C/c3ccc(CN4CCCCC4)cc3)n[nH]c2c1 (racemic) [Example A57, (1R*,2S*)-(E)-2-(3-(4-(piperidin-1-ylmethyl)styryl)-1H-indazol-6-yl)spiro[cyclopropane-1,3′-indolin]-2′-one 2,2,2-trifluoroacetate] | – | – | – | – | > 50% | –
3 | O=C1Nc2ccccc2[C@@]12C[C@@H]2c1ccc2c(/C=C/c3ccc(CN4CCCC4)cc3)n[nH]c2c1 (racemic) [Example A60, (1R*,2S*)-(E)-2-(3-(4-(pyrolidin-1-ylmethyl)styryl)-1H-indazol-6-yl)spiro[cyclopropane-1,3′-indolin]-2′-one 2,2,2-trifluoroacetate] | – | – | – | – | > 50% | –
4 | CN1CCN(c2ccc(-c3n[nH]c4cc([C@@H]5C[C@@]56C(=O)Nc5ccc(C(F)(F)F)cc56)ccc34)cc2)CC1 (racemic) [Example A170, (1R*,2S*)-2-(3-(4-(4-methylpiperazin-1-yl)phenyl)-1H-indazol-6-yl)-5′-(trifluoromethyl)spiro[cyclopropane-1,3′-indolin]-2′-one 2,2,2-trifluoroacetate] | – | – | – | – | – | IC50 [7]: 100 to 1000 nM
5 | Cc1ccc2c(c1)[C@@]1(C[C@@H]1c1ccc3c(/C=C/c4ccc(CN5CCOCC5)cc4)n[nH]c3c1)C(=O)N2 (racemic) [Example A196, (1R*,2S*)-(E)-5′-methyl-2-(3-(4-(morpholinomethyl)styryl)-1H-indazol-6-yl)spiro[cyclopropane-1,3′-indolin]-2′-one 2,2,2-trifluoroacetate] | – | – | – | – | – | inhibition at 1 µM [1]: > 50%
6 | COc1ccc2c(c1)[C@@]1(C[C@@H]1c1ccc3c(/C=C/c4cc(F)c(CN5CCOCC5)c(F)c4)n[nH]c3c1)C(=O)N2 (racemic) [Example A217, (1R*,2S*)-(E)-2-(3-(3,5-difluoro-4-(morpholinomethyl)styryl-1H-indazol-6-yl)-5′-methoxyspiro[cyclopropane-1,3′-indolin]-2′-one 2,2,2-trifluoroacetate] | – | – | – | – | > 50% | –
7 | O=C1Nc2ccccc2[C@]12C[C@H]2c1ccc2cn[nH]c2c1 (relative stereo) [Example A2, (1R*,2S*)-2-(1H-indazol-6-yl)spiro[cyclopropane-1,3′-indolin]-2′-one] | – | – | – | – | – | GI50 ([2]; read-out: Cell Line GI50 Range SW-620, SW620 colon cancer cell line): > 10000 nM; GI50 ([3]; HCC1954, 120 h): > 10000 nM; GI50 ([4]; A549, 120 h): > 10000 nM; GI50 ([5]; read-out: Cell Line GI50 Range MCF-7, MCF-7 luminal breast cancer cell line): > 10000 nM; GI50 ([6]; MDA-MB-468, 120 h): > 10000 nM
8 | COc1ccc2c(c1)[C@]1(C[C@@H]1c1ccc3c(-c4ccc(N5CCN(C)CC5)nc4)n[nH]c3c1)C(=O)N2 (relative stereo) [Example A17, (1R*,2R*)-5′-Methoxy-2-(3-(6-(4-methylpiperazin-1-yl)pyridin-3-yl)-1H-indazol-6-yl)spiro[cyclopropane-1,3′-indolin]-2′-one] | – | – | – | – | < 50% | –

More lines, main results first:

Row | GI50 [2, 8] | GI50 [4, 10] | GI50 [5, 11] | GI50 [6, 12] | SMILES | inhibition at 1 µM ([1]; 1 μM compound, 20 μM ATP) | other results
9 | < 100 nM | < 100 nM | < 100 nM | < 100 nM | COc1ccc2c(c1)[C@@]1(C[C@@H]1c1ccc3c(-c4ccc(N5CCN(C(C)C)CC5)cc4)n[nH]c3c1)C(=O)N2 (racemic) [Example A96, (1R*,2S*)-2-(3-(4-(4-isopropylpiperazin-1-yl)phenyl)-1H-indazol-6-yl)-5′-methoxyspiro[cyclopropane-1,3′-indolin]-2′-one] | < 50% | GI50 [3, 9]: 1000 to 10000 nM
10 | < 100 nM | < 100 nM | < 100 nM | < 100 nM | COc1ccc2c(c1)[C@@]1(C[C@@H]1c1ccc3c(/C=C/c4ccc(N5CCN(C)CC5)cc4)n[nH]c3c1)C(=O)N2 (racemic) [Example A174, (1R*,2S*)-(E)-5′-methoxy-2-(3-(4-(4-methylpiperazin-1-yl)styryl)-1H-indazol-6-yl)spiro[cyclopropane-1,3′-indolin]-2′-one 2,2,2-trifluoroacetate] | – | GI50 [3, 13]: 100 to 1000 nM
11 | < 100 nM | < 100 nM | < 100 nM | < 100 nM | COc1ccc2c(c1)[C@@]1(C[C@@H]1c1ccc3c(/C=C/c4ccc(CCN5CCOCC5)cc4)n[nH]c3c1)C(=O)N2 (racemic) [Example A178, (1R*,2S*)-(E)-5′-methoxy-2-(3-(4-(2-morpholinoethyl)styryl)-1H-indazol-6-yl)spiro[cyclopropane-1,3′-indolin]-2′-one 2,2,2-trifluoroacetate] | – | GI50 [3, 9]: 100 to 1000 nM
12 | < 100 nM | < 100 nM | 100 to 1000 nM | < 100 nM | COc1ccc2c(c1)[C@@]1(C[C@@H]1c1ccc3c(/C=C/c4csc(CN5CCOCC5)c4)n[nH]c3c1)C(=O)N2 (racemic) [Example A184, (1R*,2S*)-5′-methoxy-2-(3-((E)-2-(5-(morpholinomethyl)thiophen-3-yl)vinyl)-1H-indazol-6-yl)spiro[cyclopropane-1,3′-indolin]-2′-one 2,2,2-trifluoroacetate] | > 50% | GI50 [3, 13]: > 10000 nM
13 | < 100 nM | < 100 nM | < 100 nM | < 100 nM | CCN1CCN(c2ccc(/C=C/c3n[nH]c4cc([C@@H]5C[C@@]56C(=O)Nc5ccc(OC)cc56)ccc34)cc2)CC1 (racemic) [Example A188, (1R*,2S*)-(E)-2-(3-(4-(4-ethylpiperazin-1-yl)styryl)-1H-indazol-6-yl)-5′-methoxyspiro[cyclopropane-1,3′-indolin]-2′-one 2,2,2-trifluoroacetate] | > 50% | GI50 [3, 13]: 100 to 1000 nM
